These results are taken from ChEMBL document CHEMBL6078646, “Target Ligand Separation and Identification of Isoforsythiaside as a Histone Lysine-Specific Demethylase 1 Covalent Inhibitor Against Breast Cancer Metastasis” (J Med Chem, 2024).

The nature of data set [1]: Toxicity in female Balb/c mouse assessed as effect on lymphocyte level at 50 mg/kg, ip administered every other day for 7 times. Format: organism-based. The following applies: in vivo.
The test system of data set [2] is MDA-MB-231. As to the kind of experiment: Inhibition of cell migration in human MDA-MB-231 cells incubated for 24 hrs by phase contrast microscopy based wound healing assay. Format: functional. Conditions: dose 0-32 µM.
In data set [3] the test system is MDA-MB-231. As to the kind of experiment: Inhibition of cell invasion in human MDA-MB-231 cells assessed as reduction in number of invasive cells at 4 to 32 uM incubated for 24 hrs by phase contrast microscopy Transwell assay. It counts as functional, cell-based. Conditions: dose 4-32 µM.
Data set [4] has as its system MDA-MB-231. In words: Inhibition of epithelial to mesenchymal transition in human MDA-MB-231 cells assessed as upregulation of E-cadherin protein expression by Western blotting analysis. It counts as functional, cell-based. The following applies: dose 0-32 µM.
The subject of data set [5] is MDA-MB-231. In words: Antimetastatic activity against human MDA-MB-231 cells expressing luciferase xenografted in female Balb/c nude mouse assessed as reduction in fluorescence intensity in lungs at 50 mg/kg, ip administered every 3 days and measured on day 15 by bioluminescence imaging analysis relative to control. Format: functional. Further details: scale not given: the % may be the effect or the level left. The following applies: time 15 day. For orientation: Xenograft models place foreign cells or tissue in a host animal.

A short description of data set [6]: Toxicity in female Balb/c nude mouse xenografted with human MDA-MB-231 cells expressing luciferase assessed as abnormalities liver at 12 to 50 mg/kg, ip administered every 3 days and measured after 30 days by H and E staining based analysis. Format: organism-based. The following applies: in vivo, 720 h, dose 12-50 mg/kg, time 30 day.
Data set [7] is described as follows: Toxicity in female Balb/c nude mouse xenografted with human MDA-MB-231 cells expressing luciferase assessed as abnormalities spleen at 12 to 50 mg/kg, ip administered every 3 days and measured after 30 days by H and E staining based analysis. It counts as organism-based. The following applies: in vivo, 720 h, dose 12-50 mg/kg, time 30 day.
In data set [8] the target is Lysine-specific histone demethylase 1A (Homo sapiens, UniProt O60341). In words: Inhibition of LSD1 in human MDA-MB-231 cells assessed as increase in H3K4me2 accumulation by Western blotting analysis. It counts as cell-based. Conditions: dose 0-32 µM. Background: Immunoblotting shows a protein as a band on a membrane.
Data set [9] deals with MDA-MB-231. In words: Antimetastatic activity against human MDA-MB-231 cells expressing luciferase xenografted in female Balb/c nude mouse assessed as reduction in lung metastasis at 12 to 50 mg/kg, ip administered every 3 days and measured on day 30 by bioluminescence imaging analysis. It counts as functional, organism-based. The following applies: dose 12-50 mg/kg, time 30.0 day.

Calls of active or inactive are those of the source. The rule behind the calls is not given here.

Turning to `C[C@@H]1O[C@H](OC[C@H]2O[C@@H](OCCc3ccc(O)c(O)c3)[C@H](O)[C@@H](OC(=O)/C=C/c3ccc(O)c(O)c3)[C@@H]2O)[C@H](O)[C@H](O)[C@H]1O`, the Activity entry is on record as “Non-toxic” in [1], 73.3% with MDA-MB-231 [5], “Non-toxic” in data set [6] and “Non-toxic” in data set [7]. Besides, the inhibition result (in the data set on MDA-MB-231 [2]; in the data set with MDA-MB-231 [4]; in data set [8]) was “Dose-dependent-effect” each time. Also, the inhibition result in the data set with MDA-MB-231 [3] is “Active”. Also, the outcome in the data set with MDA-MB-231 [9] was Active.
